Key:
NCI/ADR-RES = experiment: Growth inhibition of human NCI/ADR-RES cells assessed as cell growth at 0.1 uM incubated for 48 hrs by sulforhodamine B assay relative to control; assay type: functional; conditions: read-out: Activity
UACC-257 = experiment: Growth inhibition of human UACC257 cells assessed as cell growth at 100 uM incubated for 48 hrs by sulforhodamine B assay relative to control; assay type: functional; conditions: UACC-257, 48 h, read-out: Activity
786-0 = experiment: Growth inhibition of human 786-0 cells assessed as cell growth at 100 uM incubated for 48 hrs by sulforhodamine B assay relative to control; assay type: functional; conditions: 786-0, 48 h, read-out: Activity
SN12C [1] = experiment: Growth inhibition of human SN12C cells assessed as cell growth at 0.01 uM incubated for 48 hrs by sulforhodamine B assay relative to control; assay type: functional; conditions: read-out: Activity
MDA-MB-231 = experiment: Growth inhibition of human MDA-MB-231 cells assessed as cell growth at 0.1 uM incubated for 48 hrs by sulforhodamine B assay relative to control; assay type: functional; conditions: MDA-MB-231, 48 h, read-out: Activity
COLO 205 = experiment: Growth inhibition of human COLO205 cells assessed as cell growth at 1 uM incubated for 48 hrs by sulforhodamine B assay relative to control; assay type: functional; conditions: COLO 205, 48 h, read-out: Activity
DU-145 [2] = experiment: Growth inhibition of human DU145 cells assessed as cell growth at 100 uM incubated for 48 hrs by sulforhodamine B assay relative to control; assay type: functional; conditions: DU-145, 48 h, read-out: Activity
SF-295 = experiment: Growth inhibition of human SF295 cells assessed as cell growth at 0.1 uM incubated for 48 hrs by sulforhodamine B assay relative to control; assay type: functional; conditions: SF-295, 48 h, read-out: Activity
MDA-MB-435 = experiment: Growth inhibition of human MDA-MB-435 cells assessed as cell growth at 0.01 uM incubated for 48 hrs by sulforhodamine B assay relative to control; assay type: functional; conditions: MDA-MB-435, 48 h, read-out: Activity
NCI-H322M = experiment: Growth inhibition of human NCI-H322M cells assessed as cell growth at 1 uM incubated for 48 hrs by sulforhodamine B assay relative to control; assay type: functional; conditions: read-out: Activity
SR = experiment: Growth inhibition of human SR cells assessed as cell growth at 100 uM incubated for 48 hrs by sulforhodamine B assay relative to control; assay type: functional; conditions: read-out: Activity
IGROV-1 = experiment: Growth inhibition of human IGROV1 cells assessed as cell growth at 100 uM incubated for 48 hrs by sulforhodamine B assay relative to control; assay type: functional; conditions: IGROV-1, 48 h, read-out: Activity
HOP-62 [3] = experiment: Growth inhibition of human HOP62 cells assessed as cell growth at 100 uM incubated for 48 hrs by sulforhodamine B assay relative to control; assay type: functional; conditions: HOP-62, 48 h, read-out: Activity
MDA-MB-468 = experiment: Growth inhibition of human MDA-MB-468 cells assessed as cell growth at 0.01 uM incubated for 48 hrs by sulforhodamine B assay relative to control; assay type: functional; conditions: MDA-MB-468, 48 h, read-out: Activity
SN12C [4] = experiment: Growth inhibition of human SN12C cells incubated for 48 hrs by sulforhodamine B assay; assay type: functional, cell-based
SF-268 = experiment: Growth inhibition of human SF268 cells assessed as cell growth at 1 uM incubated for 48 hrs by sulforhodamine B assay relative to control; assay type: functional; conditions: SF-268, 48 h, read-out: Activity
NCI-H460 [5] = experiment: Growth inhibition of human NCI-H460 cells assessed as cell growth at 0.1 uM incubated for 48 hrs by sulforhodamine B assay relative to control; assay type: functional; conditions: NCI-H460, 48 h, read-out: Activity
CCRF-CEM = experiment: Growth inhibition of human CCRF-CEM cells assessed as cell growth at 0.01 uM incubated for 48 hrs by sulforhodamine B assay relative to control; assay type: functional; conditions: read-out: Activity
DU-145 [6] = experiment: Growth inhibition of human DU145 cells assessed as cell growth at 0.1 uM incubated for 48 hrs by sulforhodamine B assay relative to control; assay type: functional; conditions: DU-145, 48 h, read-out: Activity
NCI-H226 = experiment: Growth inhibition of human NCI-H226 cells assessed as cell growth at 100 uM incubated for 48 hrs by sulforhodamine B assay relative to control; assay type: functional; conditions: NCI-H226, 48 h, read-out: Activity
HCC 2998 = experiment: Growth inhibition of human HCC2998 cells assessed as cell growth at 0.01 uM incubated for 48 hrs by sulforhodamine B assay relative to control; assay type: functional; conditions: HCC 2998, 48 h, read-out: Activity
SK-MEL-2 = experiment: Growth inhibition of human SK-MEL-2 cells assessed as cell growth at 1 uM incubated for 48 hrs by sulforhodamine B assay relative to control; assay type: functional; conditions: SK-MEL-2, 48 h, read-out: Activity
OVCAR-3 [7] = experiment: Growth inhibition of human OVCAR3 cells assessed as cell growth at 1 uM incubated for 48 hrs by sulforhodamine B assay relative to control; assay type: functional; conditions: OVCAR-3, 48 h, read-out: Activity
SF-539 = experiment: Growth inhibition of human SF539 cells assessed as cell growth at 100 uM incubated for 48 hrs by sulforhodamine B assay relative to control; assay type: functional; conditions: SF-539, 48 h, read-out: Activity
A498 = experiment: Growth inhibition of human A498 cells assessed as cell growth at 100 uM incubated for 48 hrs by sulforhodamine B assay relative to control; assay type: functional; conditions: A498, 48 h, read-out: Activity
SNB-19 [8] = experiment: Growth inhibition of human SNB19 cells assessed as cell growth at 0.1 uM incubated for 48 hrs by sulforhodamine B assay relative to control; assay type: functional; conditions: SNB-19, 48 h, read-out: Activity
CAKI-1 = experiment: Growth inhibition of human Caki1 cells assessed as cell growth at 0.1 uM incubated for 48 hrs by sulforhodamine B assay relative to control; assay type: functional; conditions: CAKI-1, 48 h, read-out: Activity
NCI-H460 [9] = experiment: Growth inhibition of human NCI-H460 cells assessed as cell growth at 1 uM incubated for 48 hrs by sulforhodamine B assay relative to control; assay type: functional; conditions: NCI-H460, 48 h, read-out: Activity
HOP-62 [10] = experiment: Growth inhibition of human HOP62 cells assessed as cell growth at 1 uM incubated for 48 hrs by sulforhodamine B assay relative to control; assay type: functional; conditions: HOP-62, 48 h, read-out: Activity
OVCAR-3 [11] = experiment: Growth inhibition of human OVCAR3 cells incubated for 48 hrs by sulforhodamine B assay; assay type: functional, cell-based; conditions: OVCAR-3, 48 h
HOP-62 [12] = experiment: Growth inhibition of human HOP62 cells incubated for 48 hrs by sulforhodamine B assay; assay type: functional, cell-based; conditions: HOP-62, 48 h
SNB-19 [13] = experiment: Growth inhibition of human SNB19 cells assessed as cell growth at 100 uM incubated for 48 hrs by sulforhodamine B assay relative to control; assay type: functional; conditions: SNB-19, 48 h, read-out: Activity
[14] = read-out: LC50 (the source's name)
[15] = read-out: pLC50 (the source's name) (converted)

COc1cc(Cl)cc(-c2nn(-c3cccc(NC(=O)c4cccc(C(F)(F)F)c4)c3)cc2-c2ccncc2)c1
growth at 0.1 µM (NCI/ADR-RES): 104% | growth at 100 µM (UACC-257): 52% | growth at 100 µM (786-0): 44% | growth at 0.01 µM (SN12C [1]): 99% | growth at 0.1 µM (MDA-MB-231): 90% | growth at 1 µM (COLO 205): 94% | growth at 100 µM (DU-145 [2]): 50% | growth at 0.1 µM (SF-295): 90% | growth at 0.01 µM (MDA-MB-435): 98% | growth at 1 µM (NCI-H322M): 90% | growth at 100 µM (SR): 15% | growth at 100 µM (IGROV-1): 70% | growth at 100 µM (HOP-62 [3]): 83% | growth at 0.01 µM (MDA-MB-468): 91% | GI50 (SN12C [4]; read-out: GI50): > 100 µM | LC50 (SN12C [4]; read-out: LC50): > 100 µM | TGI (SN12C [4]; read-out: TGI): > 100 µM | GI50 (SN12C [4]; read-out: pGI50 (converted)): > 100 µM | LC50 (SN12C [4]; read-out: pLC50 (converted)): > 100 µM | TGI (SN12C [4]; read-out: pTGI (converted)): > 100 µM | growth at 1 µM (SF-268): 100% | growth at 0.1 µM (NCI-H460 [5]): 99% | growth at 0.01 µM (CCRF-CEM): 96% | growth at 0.1 µM (DU-145 [6]): 107% | growth at 100 µM (NCI-H226): 50% | growth at 0.01 µM (HCC 2998): 108% | growth at 1 µM (SK-MEL-2): 56% | growth at 1 µM (OVCAR-3 [7]): 102% | growth at 100 µM (SF-539): 53% | growth at 100 µM (A498): 59% | growth at 0.1 µM (SNB-19 [8]): 97% | growth at 0.1 µM (CAKI-1): 94% | growth at 1 µM (NCI-H460 [9]): 93% | growth at 1 µM (HOP-62 [10]): 101% | IC50 (OVCAR-3 [11]): 7.69 µM | GI50 (OVCAR-3 [11]; read-out: GI50): 7.59 µM | CC50 (OVCAR-3 [11]; [14]): > 100 µM | TGI (OVCAR-3 [11]; read-out: TGI): > 100 µM | GI50 (OVCAR-3 [11]; read-out: pGI50 (converted)): 7.76 µM | CC50 (OVCAR-3 [11]; [15]): > 100 µM | TGI (OVCAR-3 [11]; read-out: pTGI (converted)): > 100 µM | GI50 (HOP-62 [12]; read-out: GI50): > 100 µM | CC50 (HOP-62 [12]; [14]): > 100 µM | TGI (HOP-62 [12]; read-out: TGI): > 100 µM | GI50 (HOP-62 [12]; read-out: pGI50 (converted)): > 100 µM | CC50 (HOP-62 [12]; [15]): > 100 µM | TGI (HOP-62 [12]; read-out: pTGI (converted)): > 100 µM | growth at 100 µM (SNB-19 [13]): 72%

O=C(Nc1cccc(-n2cc(-c3ccncc3)c(-c3cc(O)cc(Cl)c3)n2)c1)c1ccc(N2CCOCC2)c(C(F)(F)F)c1
growth at 0.1 µM (NCI/ADR-RES): 103% | growth at 100 µM (UACC-257): -27% | growth at 100 µM (786-0): -82% | growth at 0.01 µM (SN12C [1]): 94% | growth at 0.1 µM (MDA-MB-231): 92% | growth at 1 µM (COLO 205): 100% | growth at 100 µM (DU-145 [2]): 13% | growth at 0.1 µM (SF-295): 90% | growth at 0.01 µM (MDA-MB-435): 96% | growth at 1 µM (NCI-H322M): 57% | growth at 100 µM (SR): -25% | growth at 100 µM (IGROV-1): 25% | growth at 100 µM (HOP-62 [3]): -7% | growth at 0.01 µM (MDA-MB-468): 92% | GI50 (SN12C [4]; read-out: GI50): 6.37 µM | LC50 (SN12C [4]; read-out: LC50): > 100 µM | TGI (SN12C [4]; read-out: TGI): > 100 µM | GI50 (SN12C [4]; read-out: pGI50 (converted)): 6.31 µM | LC50 (SN12C [4]; read-out: pLC50 (converted)): > 100 µM | TGI (SN12C [4]; read-out: pTGI (converted)): > 100 µM | growth at 1 µM (SF-268): 89% | growth at 0.1 µM (NCI-H460 [5]): 104% | growth at 0.01 µM (CCRF-CEM): 98% | growth at 0.1 µM (DU-145 [6]): 108% | growth at 100 µM (NCI-H226): 27% | growth at 0.01 µM (HCC 2998): 102% | growth at 1 µM (SK-MEL-2): 77% | growth at 1 µM (OVCAR-3 [7]): 99% | growth at 100 µM (SF-539): -50% | growth at 100 µM (A498): -12% | growth at 0.1 µM (SNB-19 [8]): 105% | growth at 0.1 µM (CAKI-1): 93% | growth at 1 µM (NCI-H460 [9]): 44% | growth at 1 µM (HOP-62 [10]): 85% | IC50 (OVCAR-3 [11]): 7.2 µM | GI50 (OVCAR-3 [11]; read-out: GI50): 7.2 µM | CC50 (OVCAR-3 [11]; [14]): > 100 µM | TGI (OVCAR-3 [11]; read-out: TGI): > 100 µM | GI50 (OVCAR-3 [11]; read-out: pGI50 (converted)): 7.24 µM | CC50 (OVCAR-3 [11]; [15]): > 100 µM | TGI (OVCAR-3 [11]; read-out: pTGI (converted)): > 100 µM | GI50 (HOP-62 [12]; read-out: GI50): 3.59 µM | CC50 (HOP-62 [12]; [14]): > 100 µM | TGI (HOP-62 [12]; read-out: TGI): 58.2 µM | GI50 (HOP-62 [12]; read-out: pGI50 (converted)): 3.55 µM | CC50 (HOP-62 [12]; [15]): > 100 µM | TGI (HOP-62 [12]; read-out: pTGI (converted)): 58.9 µM | growth at 100 µM (SNB-19 [13]): -12%

From ChEMBL document CHEMBL4308841, “Synthesis, in vitro antiproliferative activity, and kinase inhibitory effects of pyrazole-containing diarylureas and diarylamides” (Eur J Med Chem, 2018)
